Holding throughout (type): functional, cell-based
Data set [1] has as its target T1, Broad substrate specificity ATP-binding cassette transporter ABCG2 (Mus musculus, UniProt Q7TMS5).
T1 sequence (Q7TMS5 whole entry): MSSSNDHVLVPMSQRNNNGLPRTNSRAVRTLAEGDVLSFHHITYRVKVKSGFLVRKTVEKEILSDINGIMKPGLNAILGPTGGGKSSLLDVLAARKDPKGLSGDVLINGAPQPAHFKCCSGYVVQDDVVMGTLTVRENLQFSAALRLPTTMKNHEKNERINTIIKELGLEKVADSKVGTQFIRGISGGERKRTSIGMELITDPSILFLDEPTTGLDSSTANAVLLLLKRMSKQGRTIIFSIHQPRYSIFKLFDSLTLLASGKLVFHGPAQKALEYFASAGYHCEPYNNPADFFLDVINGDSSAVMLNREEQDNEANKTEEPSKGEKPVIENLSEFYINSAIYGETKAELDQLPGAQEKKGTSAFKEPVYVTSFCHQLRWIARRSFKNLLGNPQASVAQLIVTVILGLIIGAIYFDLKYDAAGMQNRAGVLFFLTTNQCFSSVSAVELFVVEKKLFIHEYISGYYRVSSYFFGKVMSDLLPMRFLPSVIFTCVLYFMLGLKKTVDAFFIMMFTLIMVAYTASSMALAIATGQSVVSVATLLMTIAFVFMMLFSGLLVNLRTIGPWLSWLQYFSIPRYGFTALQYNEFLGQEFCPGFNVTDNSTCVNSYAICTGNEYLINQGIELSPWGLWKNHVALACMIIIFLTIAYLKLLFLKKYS
Description: TP_TRANSPORTER: inhibition of Topotecan transepithelial transport (basal to apical)(Topotecan: 10uM, GF120918:10uM) in Bcrp1-expressing LLC-PK1 cells. Conditions: pig, llc-pk1, 10 µM.

Data set [2] deals with T1, Broad substrate specificity ATP-binding cassette transporter ABCG2. Description: TP_TRANSPORTER: transepithelial transport (basal to apical) in Bcrp1-expressing LLC-PK1 cells. Conditions: pig.
Data set [3] shares this target. Description: TP_TRANSPORTER: inhibition of Topotecan transepithelial transport (basal to apical) in Bcrp1-expressing LLC-PK1 cells. Conditions: pig.

Turning to `COc1cc2c(cc1OC)CN(CCc1ccc(NC(=O)c3cccc4c(=O)c5cccc(OC)c5[nH]c34)cc1)CC2.Cl` [ELACRIDAR HYDROCHLORIDE], the Activity result in data set [1] was “inhibitor [+]”. For `CC[C@@]1(O)C(=O)OCc2c1cc1n(c2=O)Cc2cc3c(CN(C)C)c(O)ccc3nc2-1` [TOPOTECAN], the Activity result in data set [2] is “substrate [+]”. As to `C/C=C/C[C@@H](C)C(=O)[C@H]1C(=O)N[C@@H](C(C)C)C(=O)N(C)CC(=O)N(C)[C@@H](CC(C)C)C(=O)N[C@@H](C(C)C)C(=O)N(C)[C@@H](CC(C)C)C(=O)N[C@@H](C)C(=O)N[C@H](C)C(=O)N(C)[C@@H](CC(C)C)C(=O)N(C)[C@@H](CC(C)C)C(=O)N(C)[C@@H](C(C)C)C(=O)N1C` [VALSPODAR], in data set [3], the Activity result was “is not an inhibitor [-]”.

These data come from ChEMBL document CHEMBL2074260, “Role of breast cancer resistance protein in the bioavailability and fetal penetration of topotecan” (J Natl Cancer Inst, 2000).
